In paper PMC9104013, “Role of Polyamine-Induced Dimerization of Antizyme in Its Cellular Functions” (International Journal of Molecular Sciences, 2022):

What was measured:
mouse OAZ1 (mOAZ1) = molecular target: T1, mouse OAZ1 (mOAZ1) (Mus musculus, UniProt P54369); experiment: Isothermal titration calorimetry of polyamines binding to mOAZ1; conditions: for ΔH (enthalpy variation) / Ka (affinity constant): pH 7.5; for ΔH (enthalpy variation): SD did not exceed ±20%; for Ka (affinity constant): SD did not exceed ±25%; for Binding to mOAZ1: under the conditions used; for Kd: read-out: Kd (dissociation constant); for TΔS (entropy variation): calculated from TΔS = ΔH + RTlnKa
T1 construct: Full-length mOAZ1 protein was successfully produced in E. coli; made in house; host or cells: Escherichia coli Rosetta (DE3)
Protocol: For the precise isothermal titration calorimetry (ITC) experiments only freshly purified samples turned out to be suitable. The thermodynamic parameters of polyamines binding to OAZ1 were measured using a MicroCal iTC200 instrument (GE Healthcare, Chicago, IL, USA) as described elsewhere. Experiments were carried out at 31 °C in buffer containing 25 mM potassium phosphate, pH 7.5; 150 mM KCl; 25% (v/v) glycerol; 1 mM 2-mercaptoethanol; and 1 mM PMSF. Aliquots (2.5 μL) of ligands were injected into a 0.2 mL cell containing the protein solution to achieve a complete binding isotherm. Protein and ligand concentrations were 20 μM and 200 μM, respectively. The heat of dilution was measured by injection of the ligand into the buffer solution or by additional injections of ligand after saturation; the values obtained were subtracted from the heat of reaction to obtain the effective heat of binding. The resulting titration curves were fitted using the MicroCal Origin software, assuming one set of binding sites. Affinity constants (Ka) and enthalpy variations (ΔH) were determined, and the entropy variations (ΔS) were calculated from the equation: TΔS = ΔH + RTlnKa.

OAZ1 protein = system: OAZ1 protein; parameters: method as in PMID 11972449; conditions: HTC cells; cited from earlier work
[1] = molecular target: T2, recombinant mOAZ1 protein (Mus musculus, UniProt P54369); experiment: Electrophoresis of mOAZ1-Polyamine complex (0.01% SDS in running buffer); assay type: binding; conditions: 200 μM polyamine, 30 min, 20 °C, pH 7.5
T2 construct: Full-length mOAZ1 protein was successfully produced in E. coli; made in house; host or cells: Escherichia coli Rosetta (DE3)
Protocol: The recombinant mOAZ1 protein (1 μg/band) was incubated with 200 μM of a polyamine at room temperature for 30 min. Then the sample was quenched with a loading buffer (200 mM Tris-HCl, pH 6.8, 0.01% bromophenol blue, and 40% glycerol) and applied onto 12% polyacrylamide gel lacking SDS. Electrophoresis was carried out in a running buffer with decreased SDS concentration (25 mM Tris base; 250 mM glycine; and 0.01% SDS) at 70 V. The gel was stained with Coomassie R-250.

[2] = calculated as 1/Ka, no binding = not detected, Kd > 50 μM not detectable

T1 sequence (P54369 whole entry): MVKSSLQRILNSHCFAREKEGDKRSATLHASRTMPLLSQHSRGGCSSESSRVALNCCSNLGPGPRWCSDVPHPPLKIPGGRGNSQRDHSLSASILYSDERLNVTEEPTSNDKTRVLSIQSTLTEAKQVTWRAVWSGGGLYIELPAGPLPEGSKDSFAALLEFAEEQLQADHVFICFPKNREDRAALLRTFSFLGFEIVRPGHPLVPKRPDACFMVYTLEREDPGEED
T2 sequence (P54369 whole entry): as above

SMILES: CCNCCCNCCCNCCCNCC [DENSpm, N^1,N^11-diethylnorspermine]
- ΔH (enthalpy variation) (mouse OAZ1 (mOAZ1); ITC, 31 °C): -5.1 kcal/mol
- Ka (affinity constant) (mouse OAZ1 (mOAZ1); ITC, 31 °C): 750000 M⁻¹
- Binding to mOAZ1 (mouse OAZ1 (mOAZ1); ITC): bound to mOAZ1
- Kd (mouse OAZ1 (mOAZ1); [2]): 1300 nM
- TΔS (entropy variation) (mouse OAZ1 (mOAZ1)): 3.0 kcal/mol

SMILES: NCCCCN [Put, putrescine]
- Stoichiometry mOAZ1/Polyamine (mouse OAZ1 (mOAZ1); ITC, 31 °C, pH 7.5, 150 mM KCl, 25% glycerol, protein 20 μM, ligand 200 μM): No binding ^f
- ΔH (enthalpy variation) (mouse OAZ1 (mOAZ1); ITC, 31 °C): No binding ^f
- Ka (affinity constant) (mouse OAZ1 (mOAZ1); ITC, 31 °C): No binding ^f
- Binding to mOAZ1 (mouse OAZ1 (mOAZ1); ITC): did not
- Kd (dissociation constant) (mouse OAZ1 (mOAZ1); [2]): No binding ^f
- TΔS (entropy variation) (mouse OAZ1 (mOAZ1)): No binding ^f

SMILES: CCNCCCCNCCCCNCCCCNCCCCNC/C=C/CNCCCCNCCCCNCCCCNCCCCNCC [SL-11144]
- Half-life of OAZ1 protein (OAZ1 protein): did not increase the half-life of OAZ1 protein

SMILES: NCCCNCCCCNCCCN [Spm, spermine]
- ΔH (enthalpy variation) (mouse OAZ1 (mOAZ1); ITC, 31 °C): -3.7 kcal/mol
- Ka (affinity constant) (mouse OAZ1 (mOAZ1); ITC, 31 °C): 920000 M⁻¹
- Binding to mOAZ1 (mouse OAZ1 (mOAZ1); ITC): bound to mOAZ1
- Kd (mouse OAZ1 (mOAZ1); [2]): 1100 nM
- TΔS (entropy variation) (mouse OAZ1 (mOAZ1)): 4.5 kcal/mol
- Formation of (mOAZ1)2-Polyamine complex / dimerization [1]: induce dimerization of OAZ1
- Half-life of OAZ1 protein (OAZ1 protein): did not increase the half-life of OAZ1 protein
